Laboratory results published in US20260055103A1, “2,3,4,9-TETRAHYDRO-1H-PYRIDO[3,4-B]INDOLE DERIVATIVES AS ESTROGEN RECEPTOR MODULATORS FOR THE TREATMENT OF CANCER” (Olema Pharmaceuticals, Inc., priority 2022, published 2026).

molecular target: T1, estrogen receptor (Homo sapiens, UniProt P03372); test: Alkaline phosphatase (AP) assay in ECC-1 cells, agonist mode (no E2) and antagonist mode (500 pM E2); assay type: cell-based; settings: 3 days, AP activity normalized to 500 pM E2 alone, agonist mode without E2, antagonist mode with 500 pM E2
T1 construct: endogenous in cells; host or cells: ECC-1 cells
T1 sequence (P03372 1-595): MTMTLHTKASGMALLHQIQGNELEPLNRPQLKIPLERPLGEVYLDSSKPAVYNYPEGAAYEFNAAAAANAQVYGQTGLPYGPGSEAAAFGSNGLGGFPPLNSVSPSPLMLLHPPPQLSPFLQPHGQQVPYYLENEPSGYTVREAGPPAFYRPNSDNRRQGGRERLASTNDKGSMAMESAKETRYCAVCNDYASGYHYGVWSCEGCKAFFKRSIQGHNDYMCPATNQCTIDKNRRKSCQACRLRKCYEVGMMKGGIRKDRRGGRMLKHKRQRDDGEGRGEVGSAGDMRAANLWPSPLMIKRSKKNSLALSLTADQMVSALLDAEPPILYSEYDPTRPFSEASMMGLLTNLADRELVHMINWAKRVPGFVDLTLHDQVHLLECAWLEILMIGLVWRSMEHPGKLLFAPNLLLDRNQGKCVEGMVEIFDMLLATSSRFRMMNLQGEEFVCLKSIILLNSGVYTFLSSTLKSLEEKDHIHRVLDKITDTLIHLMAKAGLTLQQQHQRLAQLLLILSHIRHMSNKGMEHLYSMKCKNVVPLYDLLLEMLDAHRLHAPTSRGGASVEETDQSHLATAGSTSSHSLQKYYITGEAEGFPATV
Method: ECC-1 cells were trypsinized and resuspended in hormone-depleted media and plated at a density of 15 k cells per well into a 96-well plate for at least 4 hours. Cells were treated with test compounds in the absence of E2 (for agonist mode) or in the presence of 500 pM E2 (for antagonist mode) for 3 days and plates were subsequently frozen at −80° C. Thawed plates were incubated with a chromogenic substrate of AP, p-nitrophenyl phosphate (Thermo Fisher Scientific), for 40 minutes at 42° C., and absorbances were read at 405 nm. AP activity was normalized to the activity of 500 pM E2 alone.
The compound numbers correspond to the compound numbers of Table 1 and 2. Compounds having an activity designated as “+” provided estrogen receptor agonism having (i) at least 80% increase in the E2-normalized signal in the AP assay (agonist mode) and (ii) no more than 80% reduction in the E2-normalized signal in the AP assay (antagonist mode). Compounds having an activity designated as “++” provided estrogen receptor antagonism having (i) between 10% and 80% increase in the E2-normalized signal in the AP assay (agonist mode) and (ii) between 10% and 80% reduction in the E2-normalized signal in the AP assay (antagonist mode).

Structure (SMILES) | Activity (estrogen receptor modulation, agonism and antagonism)
CCCN1CC(Cc2cnc([C@@H]3c4[nH]c5ccccc5c4C[C@@H](C)N3CC(F)F)s2)C1 [Example I-32, 2-[(1S,3R)-2-(2,2-difluoroethyl)-3-methyl-1,3,4,9-tetrahydropyrido[3,4-b]indol-1-yl]-5-[(1-propylazetidin-3-yl)methyl]thiazole] | ++ (estrogen receptor antagonism having (i) between 10% and 80% increase in the E2-normalized signal in the AP assay (agonist mode) and (ii) between 10% and 80% reduction in the E2-normalized signal in the AP assay (antagonist mode))
CCCN1CC(Cc2cnc([C@@H]3c4[nH]c5ccccc5c4C[C@@H](C)N3CC(F)(F)CO)s2)C1 [Example I-50, 2,2-difluoro-3-[(1S,3R)-3-methyl-1-[5-[(1-propylazetidin-3-yl)methyl]thiazol-2-yl]-1,3,4,9-tetrahydropyrido[3,4-b]indol-2-yl]propan-1-ol] | ++ (estrogen receptor antagonism having (i) between 10% and 80% increase in the E2-normalized signal in the AP assay (agonist mode) and (ii) between 10% and 80% reduction in the E2-normalized signal in the AP assay (antagonist mode))
CCCN1CC[C@@H](Cc2ncc([C@@H]3c4[nH]c5ccccc5c4C[C@@H](C)N3CC(F)F)s2)C1 [Example I-45, 5-[(1S,3R)-2-(2,2-difluoroethyl)-3-methyl-1,3,4,9-tetrahydropyrido[3,4-b]indol-1-yl]-2-[[(3S)-1-propylpyrrolidin-3-yl]methyl]thiazole] | + (estrogen receptor agonism having (i) at least 80% increase in the E2-normalized signal in the AP assay (agonist mode) and (ii) no more than 80% reduction in the E2-normalized signal in the AP assay (antagonist mode))
C[C@@H]1Cc2c([nH]c3ccccc23)[C@@H](c2ccc(CC3CN(CCCF)C3)s2)N1CC(C)(C)F [Example I-2, 3-({5-[(1S,3R)-2-(2-fluoro-2-methylpropyl)-3-methyl-1H,2H,3H,4H,9H-pyrido[3,4-b]indol-1-yl]thiophen-2-yl}methyl)-1-(3-fluoropropyl)azetidine] | ++ (estrogen receptor antagonism having (i) between 10% and 80% increase in the E2-normalized signal in the AP assay (agonist mode) and (ii) between 10% and 80% reduction in the E2-normalized signal in the AP assay (antagonist mode))
C[C@@H]1Cc2c([nH]c3ccccc23)[C@@H](c2cnc(CC3CN(CCCF)C3)s2)N1CC(F)F [Example I-29] | +++ (estrogen receptor antagonism (i) with pIC50 greater than 7.5 and at least a 10% reduction in the E2-normalized signal in the AP assay (antagonist mode); and no more than 10% increase in E2-normalized signal in the AP assay (agonist mode))
C[C@@H]1Cc2c([nH]c3ccccc23)[C@@H](c2cnc(CC3CN(CCCF)C3)s2)N1CC(F)(F)CO [Example I-40, 2,2-difluoro-3-[(1S,3R)-1-[2-[[1-(3-fluoropropyl)azetidin-3-yl]methyl]thiazol-5-yl]-3-methyl-1,3,4,9-tetrahydropyrido[3,4-b]indol-2-yl]propan-1-ol] | +++ (estrogen receptor antagonism (i) with pIC50 greater than 7.5 and at least a 10% reduction in the E2-normalized signal in the AP assay (antagonist mode); and no more than 10% increase in E2-normalized signal in the AP assay (agonist mode))
C[C@@H]1Cc2c([nH]c3ccccc23)[C@@H](c2ccc(C3CCN(CCCF)CC3)s2)N1CC(C)(C)F [Example I-71, (1S,3R)-2-(2-fluoro-2-methyl-propyl)-1-[5-[1-(3-fluoropropyl)-4-piperidyl]-2-thienyl]-3-methyl-1,3,4,9-tetrahydropyrido[3,4-b]indole] | + (estrogen receptor agonism having (i) at least 80% increase in the E2-normalized signal in the AP assay (agonist mode) and (ii) no more than 80% reduction in the E2-normalized signal in the AP assay (antagonist mode))
C[C@@H]1Cc2c([nH]c3ccccc23)[C@@H](c2ccc(CC3CN(CC4COC4)C3)s2)N1CC(C)(C)F [Example I-24, (1S,3R)-2-(2-fluoro-2-methylpropyl)-3-methyl-1-(5-((1-(oxetan-3-ylmethyl)azetidin-3-yl)methyl)thiophen-2-yl)-2,3,4,9-tetrahydro-1H-pyrido[3,4-b]indole] | ++ (estrogen receptor antagonism having (i) between 10% and 80% increase in the E2-normalized signal in the AP assay (agonist mode) and (ii) between 10% and 80% reduction in the E2-normalized signal in the AP assay (antagonist mode))
CCCN1CC(Cc2ccc([C@@H]3c4[nH]c5ccccc5c4C[C@@H](C)N3CC(C)(C)F)s2)C1 [Example I-1, 3-({5-[(1S,3R)-2-(2-fluoro-2-methylpropyl)-3-methyl-1H,2H,3H,4H,9H-pyrido[3,4-b]indol-1-yl]thiophen-2-yl}methyl)-1-propylazetidine] | ++ (estrogen receptor antagonism having (i) between 10% and 80% increase in the E2-normalized signal in the AP assay (agonist mode) and (ii) between 10% and 80% reduction in the E2-normalized signal in the AP assay (antagonist mode))
C#CCN1CC(Cc2ccc([C@@H]3c4[nH]c5ccccc5c4C[C@@H](C)N3CC(F)(F)CO)s2)C1 [Example I-60, 2,2-difluoro-3-[(1S,3R)-3-methyl-1-[5-[(1-prop-2-ynylazetidin-3-yl)methyl]-2-thienyl]-1,3,4,9-tetrahydropyrido[3,4-b]indol-2-yl]propan-1-ol] | ++ (estrogen receptor antagonism having (i) between 10% and 80% increase in the E2-normalized signal in the AP assay (agonist mode) and (ii) between 10% and 80% reduction in the E2-normalized signal in the AP assay (antagonist mode))
C[C@@H]1Cc2c([nH]c3ccccc23)[C@@H](c2ccc(CCCN3CC(CF)C3)s2)N1CC(C)(C)F [Example I-21, 1-(3-{5-[(1S,3R)-2-(2-fluoro-2-methylpropyl)-3-methyl-1H,2H,3H,4H,9H-pyrido[3,4-b]indol-1-yl]thiophen-2-yl}propyl)-3-(fluoromethyl)azetidine] | +++ (estrogen receptor antagonism (i) with pIC50 greater than 7.5 and at least a 10% reduction in the E2-normalized signal in the AP assay (antagonist mode); and no more than 10% increase in E2-normalized signal in the AP assay (agonist mode))
C[C@@H]1Cc2c([nH]c3ccccc23)[C@@H](c2sc(CC3CN(CCCF)C3)cc2F)N1CC(F)(F)CO [Example I-55, 2,2-difluoro-3-[(1S,3R)-1-[3-fluoro-5-[[1-(3-fluoropropyl)azetidin-3-yl]methyl]-2-thienyl]-3-methyl-1,3,4,9-tetrahydropyrido[3,4-b]indol-2-yl]propan-1-ol] | +++ (estrogen receptor antagonism (i) with pIC50 greater than 7.5 and at least a 10% reduction in the E2-normalized signal in the AP assay (antagonist mode); and no more than 10% increase in E2-normalized signal in the AP assay (agonist mode))
C[C@@H]1Cc2c([nH]c3ccccc23)[C@@H](c2nnc(CC3CN(CCCF)C3)s2)N1CC(C)(C)F [Example I-52, 2-((1S,3R)-2-(2-fluoro-2-methylpropyl)-3-methyl-2,3,4,9-tetrahydro-1H-pyrido[3,4-b]indol-1-yl)-5-((1-(3-fluoropropyl)azetidin-3-yl)methyl)-1,3,4-thiadiazole] | ++ (estrogen receptor antagonism having (i) between 10% and 80% increase in the E2-normalized signal in the AP assay (agonist mode) and (ii) between 10% and 80% reduction in the E2-normalized signal in the AP assay (antagonist mode))
C[C@@H]1Cc2c([nH]c3ccccc23)[C@@H](c2ccc(CC3CN(CCC#N)C3)s2)N1CC(F)(F)CO [Example I-57] | ++ (estrogen receptor antagonism having (i) between 10% and 80% increase in the E2-normalized signal in the AP assay (agonist mode) and (ii) between 10% and 80% reduction in the E2-normalized signal in the AP assay (antagonist mode))
CCCN1CC[C@@H](Cc2ncc([C@@H]3c4[nH]c5ccccc5c4C[C@@H](C)N3CC(C)(C)F)s2)C1 [Example I-47] | + (estrogen receptor agonism having (i) at least 80% increase in the E2-normalized signal in the AP assay (agonist mode) and (ii) no more than 80% reduction in the E2-normalized signal in the AP assay (antagonist mode))
